# Literature values, collected in EP4759824A1, “DANSYLAMIDE-MODIFIED COMPOUNDS TARGETING PSMA, PREPARATION METHOD THEREFOR, AND USE THEREOF” (Yantai Lannacheng Biotechnology Co., Ltd., priority 2023, dated 2025).
# Tested on: PSMA-positive mCRPC
# Details: combined with SOC, mCRPC patients
substance,measurement,setting,value
lutetium Lu-177 vipivotide tetraxetan [^177Lu-PSMA-617],median radiographic progression-free survival,SOC alone 3.4 months,8.7 months
same,median overall survival,SOC alone 11.3 months,15.3 months
